The IC50 is the concentration that inhibits the measured activity by half.

The assay deals with ROCK1 (Homo sapiens (Human), UniProt Q13464). The assay can be described thus: ROCK1 kinase IC50 assay (biological test method similar to the ROCK2 assay). It is filed as biochemical. The protocol:
The kinase IC50 was determined by a commercialized CISBIO kinase detection kit, HTRF KinEASE-STK S2 kit (62ST2PEC). ROCK2 (01-119) employed in the reaction was purchased from Carna Biosciences.
Before the assay, the following working solutions as needed were formulated with corresponding reagents according to the instruction of the kinase detection kit: 1×kinase buffer, 5×STK-52 substrate working solution (1.5 μM) and 5×ATP working solution (1.5 μM), 5×ROCK2 kinase working solution, 4×Streptavidin-XL665 working solution, and 4×STK-Ab-Cryptate 2 detection solution. Then the assay was performed according to the following procedure.
A solution of a compound at a concentration of 10000 nM was prepared with the 1×kinase buffer containing 2.5% DMSO. Gradient dilution of the solution of the compound was performed with the kinase buffer containing DMSO, so as to obtain solutions of a test compound at 9 different concentrations. In addition to wells of test compounds, a positive well (containing all the reagents except the compound) and a negative well (containing all the reagents except the test compound and kinase) were set. Except for the control wells (positive and negative wells), a solution of a test compound (4 μL) was added to each of the reaction wells, and a solution of 2.5% DMSO was added to the control wells. Then the substrate ([…], 2 μL. 5×STK-S2 substrate working solution) was added to each of the reaction wells. The 5×ROCK2 kinase working solution (2 μL, containing 1.4 ng ROCK2 kinase) was added to each of the reaction wells except for the negative well, the volume of which was made up with the 1×kinase buffer (2 μL). The 5×ATP working solution (2 μL) was added to each of the reaction wells, and the mixtures were incubated at room temperature for 2 hours. After the kinase reaction was complete, the 4×Streptavidin-XL665 working solution was added to each of the reaction wells, the solutions were mixed, followed by immediate addition of the 4×STK-Ab-Cryptate 2 detection solution (5 μL), and the mixtures were incubated at room temperature for 1 hour. The fluorescence signal was read on ENVISION (Perkinelmer) (excitation wavelength: 320 nm, and emission wavelength: 665 nm and 615 nm). The inhibitory rate in each well was calculated based on the fluorescence intensity value: ER (Emission Ratio)=(fluorescence intensity at 665 nm/fluorescence intensity at 615 nm); inhibitory rate=(ERpositive−ERtest compound)/(ERpositive−ERnegative)*100%. Curves were plotted and fitted to obtain the median inhibitory concentration (IC50) of each teat compound with the PRISM 5.0 software.
According to a biological test method similar to the above, the IC50 values of the compounds on ROCK1 were tested.

A value given as a limit tells only on which side of the number the result lay.

Sequence of ROCK1 (Q13464 whole entry, species assumed): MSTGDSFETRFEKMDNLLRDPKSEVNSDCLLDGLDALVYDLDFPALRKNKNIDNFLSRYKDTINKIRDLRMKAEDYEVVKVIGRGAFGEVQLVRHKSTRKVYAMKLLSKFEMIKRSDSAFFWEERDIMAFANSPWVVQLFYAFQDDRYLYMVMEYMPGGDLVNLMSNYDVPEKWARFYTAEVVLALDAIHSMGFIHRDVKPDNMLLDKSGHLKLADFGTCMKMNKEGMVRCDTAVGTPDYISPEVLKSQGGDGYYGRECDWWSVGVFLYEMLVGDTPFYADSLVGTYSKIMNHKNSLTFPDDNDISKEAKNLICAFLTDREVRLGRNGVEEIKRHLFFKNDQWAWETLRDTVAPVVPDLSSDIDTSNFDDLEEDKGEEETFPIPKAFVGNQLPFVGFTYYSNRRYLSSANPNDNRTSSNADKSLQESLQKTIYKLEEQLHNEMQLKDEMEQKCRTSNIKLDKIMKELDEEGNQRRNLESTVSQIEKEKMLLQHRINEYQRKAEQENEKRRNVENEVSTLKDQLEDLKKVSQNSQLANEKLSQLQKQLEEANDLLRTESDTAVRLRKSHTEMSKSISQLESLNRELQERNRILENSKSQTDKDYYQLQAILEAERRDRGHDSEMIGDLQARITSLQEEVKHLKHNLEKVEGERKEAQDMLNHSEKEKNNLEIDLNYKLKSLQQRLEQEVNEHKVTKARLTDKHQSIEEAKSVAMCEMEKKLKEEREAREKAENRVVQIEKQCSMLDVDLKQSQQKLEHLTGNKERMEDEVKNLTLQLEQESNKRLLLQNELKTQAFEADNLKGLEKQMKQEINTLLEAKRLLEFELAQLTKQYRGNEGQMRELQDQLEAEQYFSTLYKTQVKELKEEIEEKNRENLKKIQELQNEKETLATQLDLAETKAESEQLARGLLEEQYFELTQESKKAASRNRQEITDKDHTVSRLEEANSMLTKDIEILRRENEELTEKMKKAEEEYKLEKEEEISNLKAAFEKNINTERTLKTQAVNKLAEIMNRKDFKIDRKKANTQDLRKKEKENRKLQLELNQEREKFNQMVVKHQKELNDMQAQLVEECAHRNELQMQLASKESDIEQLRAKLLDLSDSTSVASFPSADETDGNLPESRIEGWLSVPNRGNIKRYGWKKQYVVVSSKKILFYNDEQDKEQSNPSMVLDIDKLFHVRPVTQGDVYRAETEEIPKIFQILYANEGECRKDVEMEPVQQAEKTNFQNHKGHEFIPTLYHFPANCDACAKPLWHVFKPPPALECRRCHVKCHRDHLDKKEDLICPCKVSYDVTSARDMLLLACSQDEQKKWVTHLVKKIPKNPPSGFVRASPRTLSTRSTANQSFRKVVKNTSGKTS

In the case of `O=C(Nc1ccncc1Cl)c1cc2ccc(-c3nccc(Nc4ccc5[nH]ncc5c4)n3)cc2[nH]1` [TDI01290, 6-(4-((1H-indazol-5-yl)amino)-pyrimidin-2-yl)-N-(3-chloropyridin-4-yl)-1H-indole-2-carboxamide], the IC50 is greater than 10 µM.

Consider `O=C(NC1CCOCC1)c1cc2ccc(-c3nccc(Nc4ccc5[nH]ncc5c4)n3)cc2[nH]1` [TDI01291, 6-(4-((1H-indazol-5-yl)amino)-pyrimidin-2-yl)-N-(tetrahydro-2H-pyran-4-yl)-1H-indole-2-carboxamide], for which the IC50 was found to be 0.573 µM.

Turning to `CC(C)NC(=O)C1Cc2ccc(-c3nccc(Nc4ccc5[nH]ncc5c4)n3)cc2N1` (stereo not shown) [TDI01292, 6-(4-((1H-indazol-5-yl)amino)-pyrimidin-2-yl)-N-isopropyl-indoline-2-carboxamide], the IC50 was 4.84 µM.

Take `CN(C)C(=O)c1cc2ccc(-c3nccc(Nc4ccc(-c5cn[nH]c5)cc4)n3)cc2[nH]1` [TDI01294, 6-(4-((4-(1H-pyrazol-4-yl)phenyl)-amino)-pyrimidin-2-yl)-N,N-dimethyl-1H-indole-2-carboxamide]: the IC50 is greater than 10 µM.

In turn, `CNC(=O)c1cc2ccc(-c3nccc(Nc4ccc(-c5cn[nH]c5)cc4)n3)cc2[nH]1` [TDI01296, 6-(4-((4-(1H-pyrazol-4-yl)phenyl)-amino)-pyrimidin-2-yl)-N-methyl-1H-indole-2-carboxamide] returned an IC50 of 2.87 µM.

`O=C(Nc1ccccn1)c1cc2ccc(-c3nccc(Nc4ccc5[nH]ncc5c4)n3)cc2[nH]1` [TDI01311, 6-(4-((1H-indazol-5-yl)amino)pyrimidin-2-yl)-N-(pyridin-2-yl)-1H-indole-2-carboxamide] had an IC50 greater than 10 µM.

The molecule `CC(C)NC(=O)N1Cc2ccc(-c3nccc(Nc4ccc5[nH]ncc5c4)n3)cc2C1` [TDI01312, 5-(4-((1H-indazol-5-yl)amino)pyrimidin-2-yl)-N-isopropylisoindoline-2-carboxamide] showed an IC50 of 1.84 µM.

Regarding `COc1ccc(NC(=O)c2cc3ccc(-c4nccc(Nc5ccc6[nH]ncc6c5)n4)cc3[nH]2)cn1` [TDI01315, 6-(4-((1H-indazol-5-yl)amino)-pyrimidin-2-yl)-N-(6-methoxy-pyridin-3-yl)-1H-indole-2-carboxamide], the IC50 turned out to be 2.15 µM.

On to `CN1CCC(n2cc(NC(=O)c3cc4ccc(-c5nccc(Nc6ccc7[nH]ncc7c6)n5)cc4[nH]3)cn2)CC1` [TDI01316, 6-(4-((1H-indazol-5-yl)amino)-pyrimidin-2-yl)-N-(1-(1-methyl-piperidin-4-yl)-1H-pyrazol-4-yl)-1H-indole-2-carboxamide], for which the IC50 is 0.999 µM.

Molecule `CN1CCC(N2CCCC(NC(=O)c3cc4ccc(-c5nccc(Nc6ccc7[nH]ncc7c6)n5)cc4[nH]3)C2)CC1` (stereo not shown) [TDI01318, 6-(4-((1H-indazol-5-yl)amino)-pyrimidin-2-yl)-N-(1′-methyl-[1-4′-bipiperidin]-3-yl)-1H-indole-2-carboxamide] showed an IC50 of 0.274 µM.

For the molecule `O=C(NC1CC1)c1cc2ccc(-c3nccc(Nc4ccc(-c5cn[nH]c5)cc4)n3)cc2[nH]1` [TDI01324, 6-(4-((4-(1H-pyrazol-4-yl)phenyl)-amino)-pyrimidin-2-yl)-N-cyclopropyl-1H-indole-2-carboxamide], it took 1.74 µM to reach half-maximal inhibition (IC50).

For `O=C(c1cc2ccc(-c3nccc(Nc4ccc(-c5cn[nH]c5)cc4)n3)cc2[nH]1)N1CCC1` [TDI01330, (6-(4-((4-(1H-pyrazol-4-yl)phenyl)-amino)-pyrimidin-2-yl)-1H-indol-2-yl)(azetidin-1-yl)methanone], the IC50 came to 7.93 µM.

The molecule `O=C(c1cc2ccc(-c3nccc(Nc4ccc(-c5cn[nH]c5)cc4)n3)cc2[nH]1)N1CCOCC1` [TDI01331, (6-(4-((4-(1H-pyrazol-4-yl)phenyl)-amino)-pyrimidin-2-yl)-1H-indol-2-yl)-(morpholino)-methanone] returned an IC50 greater than 10 µM.

In turn, `CCN(CC)C(=O)c1cc2ccc(-c3nccc(Nc4ccc(-c5cn[nH]c5)cc4)n3)cc2[nH]1` [TDI01332, 6-(4-((4-(1H-pyrazol-4-yl)phenyl)-amino)-pyrimidin-2-yl)-N,N-diethyl-1H-indole-2-carboxamide] had an IC50 of 6.27 µM.

`O=C(NC1CCOC1)c1cc2ccc(-c3nccc(Nc4ccc(-c5cn[nH]c5)cc4)n3)cc2[nH]1` (stereo not shown) [TDI01337, 6-(4-((4-(1H-pyrazol-4-yl)phenyl)-amino)-pyrimidin-2-yl)-N-(tetrahydro-furan-3-yl)-1H-indole-2-carboxamide] gave an IC50 of 2.76 µM.

Molecule `O=C(NC1CCOCC1)c1cc2ccc(-c3nccc(Nc4ccc(-c5cn[nH]c5)cc4)n3)cc2[nH]1` [TDI01338, 6-(4-((4-(1H-pvrazol-4-yl)phenyl)-amino)-pyrimidin-2-yl)-N-(tetrahydro-2H-pyran-4-yl)-1H-indole-2-carboxamide] came in with an IC50 of 1.8 µM.

`CN1CCN(C(=O)c2cc3ccc(-c4nccc(Nc5ccc(-c6cn[nH]c6)cc5)n4)cc3[nH]2)CC1` [TDI01343, (6-4(-((4-(1H-pyrazol-4-yl)phenyl)-amino)-pyrimidin-2-yl)-1H-indol-2-yl)(4-methyl-piperazin-1-yl)methanone]: half-maximal inhibition (IC50) was put at 7.11 µM.

For the molecule `CN(C(=O)c1cc2ccc(-c3nccc(Nc4ccc(-c5cn[nH]c5)cc4)n3)cc2[nH]1)C(CO)CO` [TDI01344-2A, 6-(4-((4-(1H-pyrazol-4-yl)phenyl)-amino)-pyrimidin-2-yl)-N-(1,3-dihydroxy-propan-2-yl)-N-methyl-1H-indole-2-carboxamide], 4.21 µM corresponded to half-maximal inhibition (IC50).

Molecule `CN(C(=O)c1cc2ccc(-c3nccc(Nc4ccc(-c5cn[nH]c5)cc4)n3)cc2[nH]1)C1CCNC1` (stereo not shown) [TDI01345, 6-(4-((4-(1H-pyrazol-4-yl)phenyl)-amino)-pyrimidin-2-yl)-N-methyl-N-(pyrrolidin-3-yl)-1H-indole-2-carboxamide] had an IC50 of 3.91 µM.

In turn, `CN(C(=O)c1cc2ccc(-c3nccc(Nc4ccc5[nH]ncc5c4)n3)cc2[nH]1)c1ccnnc1` [TDI01347, 6-(4-((1H-indazol-5-yl)amino)-pyrimidin-2-yl)-N-methyl-N-(pyridazin-4-yl)-1H-indole-2-carboxamide] came in with an IC50 of 5.58 µM.

With `O=C(Nc1ccncc1Cl)c1cc2ccc(-c3nccc(Nc4ccc(-c5cn[nH]c5)cc4)n3)cc2[nH]1` [TDI01354, 6-(4-((4-(1H-pyrazol-4-yl)phenyl)-amino)-pyrimidin-2-yl)-N-(3-chloropyridin-4-yl)-1H-indole-2-caiboxamide], the concentration for half-maximal inhibition (IC50) was greater than 10 µM.

For `CN(CC(F)(F)F)C(=O)c1cc2ccc(-c3nccc(Nc4ccc(-c5cn[nH]c5)cc4)n3)cc2[nH]1` [TDI01355, 6-(4-((4-(1H-pyrazol-4-yl)phenyl)-amino)-pyrimidin-2-yl)-N-methyl-N-(2,2,2-trifluoroethyl)-1H-indole-2-carboxamide], the IC50 is greater than 10 µM.

`O=C(Nc1ccncc1)c1cc2ccc(-c3nccc(Nc4ccc(-c5cn[nH]c5)cc4)n3)cc2[nH]1` [TDI01363, 6-(4-((4-(1H-pyrazol-4-yl)phenyl)-amino)-pyrimidin-2-yl)-N-(pyridin-4-yl)-1H-indole-2-carboxamide] had an IC50 greater than 10 µM.

In the case of `CN(C)C(=O)N1Cc2ccc(-c3nccc(Nc4ccc(-c5cn[nH]c5)cc4)n3)cc2C1` [TDI01366, 5-(4-((4-(1H-pyrazol-4-yl)phenyl)amino)pyrimidin-2-yl)-N,N-dimethylisoindoline-2-carboxamide], the IC50 was greater than 10 µM.

In turn, `CC(C)NC(=O)c1cc2ccc(-c3nc(Nc4ccc(-c5cn[nH]c5)cc4)c4sccc4n3)cc2[nH]1` [TDI01370, 6-(4-((4-(1H-pyrazol-4-yl)phenyl)-amino)-thieno[3,2-d]pyrimidin-2-yl)-N-isopropyl-1H-indole-2-carboxamide] had an IC50 of 1.49 µM.

On to `CNC(=O)c1cc2ccc(-c3nc(Nc4ccc(-c5cn[nH]c5)cc4)c4sccc4n3)cc2[nH]1` [TDI01379, 6-(4-((4-(1H-pyrazol-4-yl)phenyl)-amino)thieno-[3.2-d]-pyrimidin-2-yl)-N-methyl-1H-indole-2-carboxamide], for which the IC50 is greater than 10 µM.

`CN(C(=O)c1cc2ccc(-c3nccc(Nc4ccc(-c5cn[nH]c5)cc4)n3)cc2[nH]1)C1CCOCC1` [TDI01381, 6-(4-((4-(1H-pyrazol-4-yl)phenyl)amino)pyrimidin-2-yl)-N-methyl-N-(tetrahydro-2H-pyran-4-yl)-1H-indole-2-carboxamide] registered an IC50 of 4.11 µM.

In the case of `O=C(Nc1ccncc1)c1cc2ccc(-c3nccc(Nc4ccc(-c5cn[nH]c5)cc4)n3)cc2s1` [TDI01393], the IC50 was greater than 10 µM.
